Active and inactive are the calls of the source. The calls are words filed in the database; no cut-off is given here.
Columns and labels:
PBMC [1] = assay: Antiinflammatory activity in human PBMC assessed as inhibition of LPS-induced IL-1beta release incubated for 15 mins prior to LPS-challenge measured after 24 hrs by HTRF assay; format: functional, cell-based
PBMC [2] = assay: Antiinflammatory activity in human PBMC assessed as inhibition of LPS-induced IL-6 release incubated for 15 mins prior to LPS-challenge measured after 24 hrs by HTRF assay; format: functional, cell-based
PBMC [3] = assay: Antiinflammatory activity in human PBMC assessed as inhibition of LPS-induced TNFalpha release incubated for 15 mins prior to LPS-challenge measured after 24 hrs by HTRF assay; format: functional, cell-based
Mus musculus [4] = assay: Antiinflammatory activity in collagen-induced arthritis mouse model at 3 mg/kg, po qd after 20 days; format: functional, organism-based; set-up: dose 3 mg/kg
Mus musculus [5] = assay: Toxicity in mouse assessed as change in body weight at 3 mg/kg, po qd after 20 days relative to untreated control; format: organism-based; set-up: dose 3 mg/kg, route oral; details: in vivo, 480 h

`OB1OCc2ccc(NCc3ccccc3C(F)(F)F)cc21` gave an IC50 (PBMC [1]) greater than 10 µM, an IC50 (PBMC [2]) greater than 10 µM and an IC50 (PBMC [3]) greater than 10 µM.

For `COc1ccccc1C(=O)Nc1ccc2c(c1)B(O)OC2`, the IC50 (PBMC [1]) was greater than 100 µM, the IC50 (PBMC [2]) was greater than 100 µM and the IC50 (PBMC [3]) was 36 µM.

`O=C(Nc1ccc2c(c1)B(O)OC2)c1ccc(C(F)(F)F)cc1F` was tested, and the IC50 (PBMC [1]) was greater than 100 µM, the IC50 (PBMC [2]) was greater than 100 µM and the IC50 (PBMC [3]) was greater than 100 µM.

With `O=C(Nc1ccc2c(c1)B(O)OC2)c1ccc(C(F)(F)F)cc1C(F)(F)F` the IC50 (PBMC [1]) was 5.3 µM, the IC50 (PBMC [2]) was 8.3 µM and the IC50 (PBMC [3]) was 10 µM.

With `O=S(=O)(Nc1ccc2c(c1)B(O)OC2)c1ccccc1C(F)(F)F` the IC50 (PBMC [1]) was greater than 10 µM, the IC50 (PBMC [2]) was greater than 10 µM and the IC50 (PBMC [3]) was greater than 10 µM.

With `O=C(Nc1ccc2c(c1)B(O)OC2)c1ccc(F)cc1C(F)(F)F` the IC50 (PBMC [1]) was 3.2 µM, the IC50 (PBMC [2]) was 5.6 µM and the IC50 (PBMC [3]) was 13 µM.

Compound `O=C(Nc1ccc2c(c1)B(O)OC2)c1cccc(C(F)(F)F)c1F` has an IC50 (PBMC [1]) greater than 100 µM, an IC50 (PBMC [2]) greater than 100 µM and an IC50 (PBMC [3]) of 99 µM.

In the case of `O=C(Nc1ccc2c(c1)B(O)OC2)c1cccc(C(F)(F)F)c1`, the IC50 (PBMC [1]) is reported as greater than 10 µM, the IC50 (PBMC [2]) is reported as greater than 10 µM and the IC50 (PBMC [3]) is reported as greater than 10 µM.

In the case of `O=C(Nc1ccc2c(c1)B(O)OC2)c1ccccc1`, the IC50 (PBMC [1]) is reported as greater than 100 µM, the IC50 (PBMC [2]) is reported as greater than 100 µM and the IC50 (PBMC [3]) is reported as greater than 100 µM.

`O=C(Nc1ccc2c(c1)B(O)OC2)c1ccccc1Cl` gave an IC50 (PBMC [1]) greater than 100 µM, an IC50 (PBMC [2]) greater than 100 µM and an IC50 (PBMC [3]) greater than 100 µM.

In the case of `O=C(Nc1ccc2c(c1)B(O)OC2)c1ccc(C(F)(F)F)cc1`, the IC50 (PBMC [1]) is reported as greater than 100 µM, the IC50 (PBMC [2]) is reported as greater than 100 µM and the IC50 (PBMC [3]) is reported as greater than 100 µM.

Compound `O=C(Nc1ccc2c(c1)B(O)OC2)c1c(F)cccc1C(F)(F)F` has an IC50 (PBMC [1]) of 0.18 µM, an IC50 (PBMC [2]) of 0.37 µM and an IC50 (PBMC [3]) of 1.2 µM.

In the case of `Cc1ccccc1C(=O)Nc1ccc2c(c1)B(O)OC2`, the IC50 (PBMC [1]) is reported as greater than 100 µM, the IC50 (PBMC [2]) is reported as greater than 100 µM and the IC50 (PBMC [3]) is reported as greater than 100 µM.

For `O=C(Nc1ccc2c(c1)B(O)OC2)c1cc(C(F)(F)F)ccc1F`, the IC50 (PBMC [1]) was greater than 100 µM, the IC50 (PBMC [2]) was greater than 100 µM and the IC50 (PBMC [3]) was greater than 100 µM.

For `C[C@]12C=CC(=O)C=C1CC[C@@H]1[C@@H]2[C@@H](O)C[C@@]2(C)[C@H]1CC[C@]2(O)C(=O)CO` [PREDNISOLONE], the inhibition (Mus musculus [4]) was “Active” and the Activity (Mus musculus [5]) was “Non-toxic”.

Work on `O=C(Nc1ccc2c(c1)B(O)OC2)c1cc(F)ccc1C(F)(F)F` yielded an IC50 (PBMC [1]) of 11 µM, an IC50 (PBMC [2]) of 8.2 µM and an IC50 (PBMC [3]) of 28 µM.

`O=C(Nc1ccc2c(c1)B(O)OC2)c1ccccc1C(F)(F)F` gave an IC50 (PBMC [1]) of 2.1 µM, an IC50 (PBMC [2]) of 4.4 µM and an IC50 (PBMC [3]) of 7.2 µM.

For `O=C(Nc1ccc2c(c1)B(O)OC2)c1ccccc1F`, the IC50 (PBMC [1]) was greater than 10 µM, the IC50 (PBMC [2]) was greater than 10 µM and the IC50 (PBMC [3]) was greater than 100 µM.

`O=C(Nc1ccc2c(c1)B(O)OC2)c1cc(C(F)(F)F)ccc1C(F)(F)F` showed an IC50 (PBMC [1]) of 2 µM, an IC50 (PBMC [2]) of 3 µM and an IC50 (PBMC [3]) of 6.3 µM.

For `O=C(Nc1ccc2c(c1)B(O)OC2)c1cccc(Cl)c1F`, the IC50 (PBMC [1]) was greater than 100 µM, the IC50 (PBMC [2]) was greater than 100 µM and the IC50 (PBMC [3]) was greater than 100 µM.

In the case of `O=C(Nc1ccc2c(c1)B(O)OC2)c1c(F)cccc1Cl`, the IC50 (PBMC [1]) is reported as 3.1 µM, the IC50 (PBMC [2]) is reported as 4.9 µM and the IC50 (PBMC [3]) is reported as 15 µM.

In the case of `O=C(Nc1ccc2c(c1)B(O)OC2)Nc1ccccc1C(F)(F)F`, the IC50 (PBMC [1]) is reported as greater than 10 µM, the IC50 (PBMC [2]) is reported as greater than 10 µM and the IC50 (PBMC [3]) is reported as greater than 10 µM.

With `O=C(Nc1ccc2c(c1)B(O)OC2)c1ccccc1-c1ccccc1` the IC50 (PBMC [1]) was greater than 100 µM, the IC50 (PBMC [2]) was greater than 100 µM and the IC50 (PBMC [3]) was greater than 100 µM.

With `O=C(Nc1ccc2c(c1)B(O)OC2)c1ccccc1OC(F)(F)F` the IC50 (PBMC [1]) was greater than 100 µM, the IC50 (PBMC [2]) was greater than 100 µM and the IC50 (PBMC [3]) was greater than 100 µM.

Source: ChEMBL document CHEMBL2440005, “Discovery and structure-activity relationships of 6-(benzoylamino)benzoxaboroles as orally active anti-inflammatory agents” (Bioorg Med Chem Lett, 2013)
